Assay results as given in ChEMBL document CHEMBL1151757, “Synthesis, radiosynthesis, and biological evaluation of fluorine-18-labeled 2beta-carbo(fluoroalkoxy)-3beta-(3'-((Z)-2-haloethenyl)phenyl)nortropanes: candidate radioligands for in vivo imaging of the serotonin transporter with positron emission tomography” (J Med Chem, 2008).

Tests used:
[1] = Ratio of drug uptake in pons to cerebellum in anesthetized cynomolgus monkey after 215 mins postinjection; assay type: ADME, organism-based, Macaca fascicularis; conditions: in vivo
[2] = Drug uptake in anesthetized cynomolgus monkey brain occipital lobe after 35 mins postinjection; assay type: ADME, organism-based, Macaca fascicularis; conditions: in vivo
[3] = Drug uptake in anesthetized cynomolgus monkey brain occipital lobe after 125 mins postinjection; assay type: ADME, organism-based, Macaca fascicularis; conditions: in vivo
[4] = Ratio of drug uptake in midbrain to cerebellum in anesthetized cynomolgus monkey after 225 mins postinjection; assay type: ADME, organism-based, Macaca fascicularis; conditions: in vivo, 3.75 h
[5] = Ratio of drug uptake in occipital lobe to cerebellum in anesthetized cynomolgus monkey after 115 mins postinjection; assay type: ADME, organism-based, Macaca fascicularis; conditions: in vivo
Putamen [6] = assay: Drug uptake in anesthetized cynomolgus monkey brain putamen after 135 mins postinjection; assay type: ADME, organism-based, Macaca fascicularis; conditions: in vivo, 2.25 h
[7] = Drug uptake in awake rhesus monkey brain frontal lobe after 13.5 mins postinjection; assay type: ADME, organism-based, Macaca mulatta; conditions: in vivo, 0.225 h
[8] = Drug uptake in awake rhesus monkey brain medulla after 10.5 mins postinjection; assay type: ADME, organism-based, Macaca mulatta; conditions: in vivo, 0.175 h
Midbrain [9] = assay: Drug uptake in anesthetized cynomolgus monkey brain midbrain after 145 mins postinjection; assay type: ADME, organism-based, Macaca fascicularis; conditions: in vivo
Pons [10] = assay: Drug uptake in anesthetized cynomolgus monkey brain pons after 9.5 mins postinjection; assay type: ADME, organism-based, Macaca fascicularis; conditions: in vivo
Pons [11] = assay: Drug uptake in anesthetized cynomolgus monkey brain pons after 15.5 mins postinjection; assay type: ADME, organism-based, Macaca fascicularis; conditions: in vivo
Thalamus [12] = assay: Drug uptake in anesthetized cynomolgus monkey brain thalamus after 205 mins postinjection; assay type: ADME, organism-based, Macaca fascicularis; conditions: in vivo
Midbrain [13] = assay: Drug uptake in anesthetized cynomolgus monkey brain midbrain after 205 mins postinjection; assay type: ADME, organism-based, Macaca fascicularis; conditions: in vivo
[14] = Drug uptake in awake rhesus monkey brain pons after 25 mins postinjection; assay type: ADME, organism-based, Macaca mulatta; conditions: in vivo
[15] = Drug uptake in awake rhesus monkey brain midbrain after 7.5 mins postinjection; assay type: ADME, organism-based, Macaca mulatta; conditions: in vivo, 0.125 h
Caudate [16] = assay: Drug uptake in anesthetized cynomolgus monkey brain caudate after 185 mins postinjection; assay type: ADME, organism-based, Macaca fascicularis, Caudate nucleus; conditions: in vivo
Pons [17] = assay: Drug uptake in anesthetized cynomolgus monkey brain pons after 135 mins postinjection; assay type: ADME, organism-based, Macaca fascicularis; conditions: in vivo, 2.25 h
Medulla [18] = assay: Drug uptake in anesthetized cynomolgus monkey brain medulla after 22.5 mins postinjection; assay type: ADME, organism-based, Macaca fascicularis; conditions: in vivo, 0.375 h
[19] = Ratio of drug uptake in putamen to cerebellum in awake rhesus monkey after 45 mins postinjection; assay type: ADME, organism-based, Macaca mulatta; conditions: in vivo, 0.75 h
[20] = Ratio of drug uptake in caudate to cerebellum in awake rhesus monkey after 25 mins postinjection; assay type: ADME, organism-based, Macaca mulatta; conditions: in vivo
[21] = Drug uptake in awake rhesus monkey brain putamen after 95 mins postinjection; assay type: ADME, organism-based, Macaca mulatta; conditions: in vivo
[22] = Drug uptake in awake rhesus monkey brain caudate after 10.5 mins postinjection; assay type: ADME, organism-based, Macaca mulatta, Caudate nucleus; conditions: in vivo, 0.175 h
[23] = Drug uptake in awake rhesus monkey brain caudate after 13.5 mins postinjection; assay type: ADME, organism-based, Macaca mulatta, Caudate nucleus; conditions: in vivo, 0.225 h
[24] = Ratio of drug uptake in pons to cerebellum in awake rhesus monkey after 7.5 mins postinjection; assay type: ADME, organism-based, Macaca mulatta; conditions: in vivo, 0.125 h
Medulla [25] = assay: Drug uptake in anesthetized cynomolgus monkey brain medulla after 235 mins postinjection; assay type: ADME, organism-based, Macaca fascicularis; conditions: in vivo
[26] = Drug uptake in anesthetized cynomolgus monkey brain cerebellum after 22.5 mins postinjection; assay type: ADME, organism-based, Macaca fascicularis; conditions: in vivo, 0.375 h
[27] = Drug uptake in anesthetized cynomolgus monkey brain cerebellum after 65 mins postinjection; assay type: ADME, organism-based, Macaca fascicularis; conditions: in vivo
Caudate [28] = assay: Drug uptake in anesthetized cynomolgus monkey brain caudate after 1.5 mins postinjection; assay type: ADME, organism-based, Macaca fascicularis, Caudate nucleus; conditions: in vivo, 0.025 h
Caudate [29] = assay: Drug uptake in anesthetized cynomolgus monkey brain caudate after 6.5 mins postinjection; assay type: ADME, organism-based, Macaca fascicularis, Caudate nucleus; conditions: in vivo
Caudate [30] = assay: Drug uptake in anesthetized cynomolgus monkey brain caudate after 45 mins postinjection; assay type: ADME, organism-based, Macaca fascicularis, Caudate nucleus; conditions: in vivo, 0.75 h
Caudate [31] = assay: Drug uptake in anesthetized cynomolgus monkey brain caudate after 95 mins postinjection; assay type: ADME, organism-based, Macaca fascicularis, Caudate nucleus; conditions: in vivo
Caudate [32] = assay: Drug uptake in anesthetized cynomolgus monkey brain caudate after 155 mins postinjection; assay type: ADME, organism-based, Macaca fascicularis, Caudate nucleus; conditions: in vivo
Caudate [33] = assay: Drug uptake in anesthetized cynomolgus monkey brain caudate after 165 mins postinjection; assay type: ADME, organism-based, Macaca fascicularis, Caudate nucleus; conditions: in vivo, 2.75 h
Putamen [34] = assay: Drug uptake in anesthetized cynomolgus monkey brain putamen after 0.5 mins postinjection; assay type: ADME, organism-based, Macaca fascicularis; conditions: in vivo
Putamen [35] = assay: Drug uptake in anesthetized cynomolgus monkey brain putamen after 3.5 mins postinjection; assay type: ADME, organism-based, Macaca fascicularis; conditions: in vivo
[36] = Drug uptake in awake rhesus monkey brain cerebellum after 25 mins postinjection; assay type: ADME, organism-based, Macaca mulatta; conditions: in vivo
Putamen [37] = assay: Drug uptake in anesthetized cynomolgus monkey brain putamen after 75 mins postinjection; assay type: ADME, organism-based, Macaca fascicularis; parameters: unit not given here; conditions: in vivo, 1.25 h
Thalamus [38] = assay: Drug uptake in anesthetized cynomolgus monkey brain thalamus after 105 mins postinjection; assay type: ADME, organism-based, Macaca fascicularis; parameters: unit not given here; conditions: in vivo, 1.75 h
Thalamus [39] = assay: Drug uptake in anesthetized cynomolgus monkey brain thalamus after 125 mins postinjection; assay type: ADME, organism-based, Macaca fascicularis; parameters: unit not given here; conditions: in vivo
Thalamus [40] = assay: Drug uptake in anesthetized cynomolgus monkey brain thalamus after 175 mins postinjection; assay type: ADME, organism-based, Macaca fascicularis; parameters: unit not given here; conditions: in vivo
Midbrain [41] = assay: Drug uptake in anesthetized cynomolgus monkey brain midbrain after 1.5 mins postinjection; assay type: ADME, organism-based, Macaca fascicularis; parameters: unit not given here; conditions: in vivo, 0.025 h
Midbrain [42] = assay: Drug uptake in anesthetized cynomolgus monkey brain midbrain after 9.5 mins postinjection; assay type: ADME, organism-based, Macaca fascicularis; parameters: unit not given here; conditions: in vivo
Midbrain [43] = assay: Drug uptake in anesthetized cynomolgus monkey brain midbrain after 22.5 mins postinjection; assay type: ADME, organism-based, Macaca fascicularis; parameters: unit not given here; conditions: in vivo, 0.375 h
Midbrain [44] = assay: Drug uptake in anesthetized cynomolgus monkey brain midbrain after 55 mins postinjection; assay type: ADME, organism-based, Macaca fascicularis; parameters: unit not given here; conditions: in vivo

O=C(OCC[18F])C1C2CCC(CC1c1ccc(/C=C\I)cc1)N2 (centres undefined)
Ratio [1]: 2.9 | Drug uptake [2]: 2.13 | Drug uptake [3]: 2.24 | Ratio [4]: 4.2 | Ratio [5]: 1.3 | Drug uptake (Putamen [6]): 4.33 | Drug uptake [7]: 1.57 | Drug uptake [8]: 1.79 | Drug uptake (Midbrain [9]): 4.65 | Drug uptake (Pons [10]): 1.62 | Drug uptake (Pons [11]): 2.14 | Drug uptake (Thalamus [12]): 3.59 | Drug uptake (Midbrain [13]): 4.57 | Drug uptake [14]: 2.29 | Drug uptake [15]: 1.35 | Drug uptake (Caudate [16]): 2.97 | Drug uptake (Pons [17]): 3.6 | Drug uptake (Medulla [18]): 3.09 | Ratio [19]: 1.6 | Ratio [20]: 1.3 | Drug uptake [21]: 3.34 | Drug uptake [22]: 1.73 | Drug uptake [23]: 1.87 | Ratio [24]: 0.9 | Drug uptake (Medulla [25]): 3.3 | Drug uptake [26]: 2.63 | Drug uptake [27]: 2.44 | Drug uptake (Caudate [28]): 0.07 | Drug uptake (Caudate [29]): 1.13 | Drug uptake (Caudate [30]): 2.58 | Drug uptake (Caudate [31]): 3.05 | Drug uptake (Caudate [32]): 3.03 | Drug uptake (Caudate [33]): 2.99 | Drug uptake (Putamen [34]): 0 | Drug uptake (Putamen [35]): 0.82 | Drug uptake [36]: 2.12 | Drug uptake (Putamen [37]): 4.28 | Drug uptake (Thalamus [38]): 4.11 | Drug uptake (Thalamus [39]): 4.04 | Drug uptake (Thalamus [40]): 3.78 | Drug uptake (Midbrain [41]): 0.1 | Drug uptake (Midbrain [42]): 2.2 | Drug uptake (Midbrain [43]): 3.04 | Drug uptake (Midbrain [44]): 4.01
